Results taken from patent EP4559911A1, “NOVEL HETEROCYCLIC COMPOUND AND PHARMACEUTICAL COMPOSITION FOR INHIBITING AUTOTAXIN COMPRISING THE SAME” (Nextgen Bioscience Co., Ltd., priority 2022, dated 2024).

What follows are compounds tested against human Autotaxin protein (Homo sapiens, UniProt Q13822) (assay: Evaluation of the inhibitory activity against human Autotaxin protein (18:1 LysoPC substrate, choline assay kit, absorbance at 570 nm)). Settings: compound at 500nM; 2 hours at 37 °C; % inhibition = (1 - absorbance test group / absorbance control group) X 100.
Format: biochemical
Method: Solutions of each compound synthesized (80 uM, 100% dimethyl sulfoxide) were sequentially diluted 5-fold with dimethyl sulfoxide to prepare 6 concentrations. Each concentration of the compound was diluted 2-fold with 1x test buffer (50 mM Tris-Cl (pH 8.0), 5 mM KCl, 1 mM CaCl2, 1 mM MgCl2, 140 mM NaCl, deionized water, 1 mg/mL BSA), and 1 uL (1.25% dimethyl sulfoxide) of this diluted mixture was dispensed into each well of a 96-well clear round-bottom plate. 9 uL of 1x test buffer was added, and 20 uL of 240 nM human autotaxin protein (buffer: 50 mM Tris-HCl, pH 8.0, with 150 mM sodium chloride and 20% glycerol) was added. 10 uL of sonicated 360 uM 18:1 LysoPC (diluted with 1x assay buffer) was added. The reaction was performed for 2 hours in a shaking incubator at 37 °C, and a secondary reaction mixture (choline assay kit, KA1662) (65 uL of 1x assay buffer: 1 uL of choline oxidase: 1 uL of dye probe) was prepared. 60 uL of the secondary reaction mixture was added to the plate where the reaction was performed, and incubated for 30 minutes in a shaker. The absorbance value was measured at a wavelength of 570 nm using a SpectraMax iD3 microplate reader. The percentage inhibition activity value (% inhibition) was calculated by the formula: (1 - absorbance value test group / absorbance value control group) X 100.

SMILES	inhibition at 0.5 µM
Cn1nncc1C1CN(c2nnc(-c3cnc(NC4Cc5cc(F)c(F)cc5C4)nc3)o2)C1 [Example 41, N-(5,6-difluoro-2,3-dihydro-1H-inden-2-yl)-5-(5-(3-(1-methyl-1H-1,2,3-triazol-5-yl)azetidin-1-yl)-1,3,4-oxadiazol-2-yl)pyrimidin-2-amine]	70.6%
NS(=O)(=O)C1CN(c2nnc(-c3cnc(NC4Cc5cc(F)c(F)cc5C4)nc3)o2)C1 [Example 46, 1-(5-(2-((5,6-difluoro-2,3-dihydro-1H-inden-2-yl)amino)pyrimidin-5-yl)-1,3,4-oxadiazol-2-yl)azetidine-3-sulfonamide]	27.1%
COC(=O)C1CN(c2nnc(-c3cnc(NC4Cc5cc(F)c(F)cc5C4)nc3)o2)C1 [Example 47, methyl 1-(5-(2-((5,6-difluoro-2,3-dihydro-1H-inden-2-yl)amino)pyrimidin-5-yl)-1,3,4-oxadiazol-2-yl)azetidine-3-carboxylate]	7.5%
Fc1cc(F)cc(CNc2ncc(-c3nnc(N4CC(c5c[nH]nn5)C4)o3)cn2)c1 [Example 48, 5-(5-(3-(1H-1,2,3-triazol-4-yl)azetidin-1-yl)-1,3,4-oxadiazol-2-yl)-N-(3,5-difluorobenzyl)pyrimidin-2-amine]	39.2%
O=C(O)C1CN(c2nnc(-c3cnc(NC4Cc5cc(F)c(F)cc5C4)nc3)o2)C1 [Example 50, 1-(5-(2-((5,6-difluoro-2,3-dihydro-1H-inden-2-yl)amino)pyrimidin-5-yl)-1,3,4-oxadiazol-2-yl)azetidine-3-carboxylic acid]	14%
COC(=O)CC1CN(c2nnc(-c3cnc(NC4Cc5cc(F)c(F)cc5C4)nc3)o2)C1 [Example 52, Methyl 2-(1-(5-(2-((5,6-difluoro-2,3-dihydro-1H-inden-2-yl)amino)pyrimidin-5-yl)-1,3,4-oxadiazol-2-yl)azetidin-3-yl)acetate]	21.9%
O=C(O)CC1CN(c2nnc(-c3cnc(NC4Cc5cc(F)c(F)cc5C4)nc3)o2)C1 [Example 53, 2-(1-(5-(2-((5,6-difluoro-2,3-dihydro-1H-inden-2-yl)amino)pyrimidin-5-yl)-1,3,4-oxadiazol-2-yl)azetidin-3-yl)acetic acid]	24.7%
Fc1cc2c(cc1F)CC(Nc1ccc(-c3nnc(N4CC(c5c[nH]nn5)C4)o3)cn1)C2 [Example 54, 5-(5-(3-(1H-1,2,3-triazol-4-yl)azetidin-1-yl)-1,3,4-oxadiazol-2-yl)-N-(5,6-difluoro-2,3-dihydro-1H-inden-2-yl)pyridin-2-amine]	23.4%
N#CC1CN(c2nnc(-c3cnc(NC4Cc5cc(F)c(F)cc5C4)nc3)o2)C1 [Example 57, 1-(5-(2-((5,6-difluoro-2,3-dihydro-1H-inden-2-yl)amino)pyrimidin-5-yl)-1,3,4-oxadiazol-2-yl)azetidine-3-carbonitrile]	8.6%
Fc1cc2c(cc1F)CC(Nc1ncc(-c3nnc(N4CC(c5nnc(C(F)F)o5)C4)o3)cn1)C2 [Example 61, N-(5,6-difluoro-2,3-dihydro-1H-inden-2-yl)-5-(5-(3-(5-(difluoromethyl)-1,3,4-oxadiazol-2-yl)azetidin-1-yl)-1,3,4-oxadiazol-2-yl)pyrimidin-2-amine]	1%
CC(C)(C)C(=O)OCn1cc(C2CN(c3nnc(-c4cnc(NC5Cc6ccc(F)cc6C5)nc4)o3)C2)nn1 (stereo not shown) [Example 63, (4-(1-(5-(2-((5-fluoro-2,3-dihydro-1H-inden-2-yl)amino)pyrimidin-5-yl)-1,3,4-oxadiazol-2-yl)azetidin-3-yl)-1H-1,2,3-triazol-1-yl)methyl pivalate]	1%
Cc1nc(NC2Cc3cc(F)c(F)cc3C2)ncc1-c1nnc(N2CC(c3c[nH]nn3)C2)o1 [Example 67, 5-(5-(3-(1H-1,2,3-triazol-4-yl)azetidin-1-yl)-1,3,4-oxadiazol-2-yl)-N-(5,6-difluoro-2,3-dihydro-1H-inden-2-yl)-4-methylpyrimidin-2-amine]	74.7%

More lines, now with the values ahead:

inhibition at 0.5 µM	SMILES
98.6%	O=C(/C=C/c1cnc(NC2Cc3cc(F)c(F)cc3C2)nc1)N1CC(c2c[nH]nn2)C1 [Example 40, (E)-1-(3-(1H-1,2,3-triazol-4-yl)azetidin-1-yl)-3-(2-((5,6-difluoro-2,3-dihydro-1H-inden-2-yl)amino)pyrimidin-5-yl)prop-2-en-1-one]
97.8%	c1ccc2c(c1)CC(Nc1ncc(-c3nnc(N4CC(c5c[nH]nn5)C4)o3)cn1)C2 [Example 42, 5-(5-(3-(1H-1,2,3-triazol-4-yl)azetidin-1-yl)-1,3,4-oxadiazol-2-yl)-N-(2,3-dihydro-1H-inden-2-yl)pyrimidin-2-amine]
35.4%	Fc1cc2c(cc1F)CC(Nc1ncc(C3CC(N4CC(c5c[nH]nn5)C4)=NO3)cn1)C2 (stereo not shown) [Example 43, 5-(3-(3-(1H-1,2,3-triazol-4-yl)azetidin-1-yl)-4,5-dihydroisoxazol-5-yl)-N-(5,6-difluoro-2,3-dihydro-1H-inden-2-yl)pyrimidin-2-amine]
51.5%	O=C(CCc1cnc(NC2Cc3cc(F)c(F)cc3C2)nc1)N1CC(c2c[nH]nn2)C1 [Example 44, 1-(3-(1H-1,2,3-triazol-4-yl)azetidin-1-yl)-3-(2-((5,6-difluoro-2,3-dihydro-1H-inden-2-yl)amino)pyrimidin-5-yl)propan-1-one]
43%	Fc1cc2c(cc1F)CC(Nc1ncc(-c3cc(N4CC(c5c[nH]nn5)C4)no3)cn1)C2 [Example 45, 5-(3-(3-(1H-1,2,3-triazol-4-yl)azetidin-1-yl)isoxazol-5-yl)-N-(5,6-difluoro-2,3-dihydro-1H-inden-2-yl)pyrimidin-2-amine]
11%	OC1CN(c2nnc(-c3cnc(NC4Cc5cc(F)c(F)cc5C4)nc3)o2)C1 [Example 49, 1-(5-(2-((5,6-difluoro-2,3-dihydro-1H-inden-2-yl)amino)pyrimidin-5-yl)-1,3,4-oxadiazol-2-yl)azetidin-3-ol]
91.8%	CC1(c2c[nH]nn2)CN(c2nnc(-c3cnc(NC4Cc5cc(F)c(F)cc5C4)nc3)o2)C1 [Example 51, N-(5,6-difluoro-2,3-dihydro-1H-inden-2-yl)-5-(5-(3-methyl-3-(1H-1,2,3-triazol-4-yl)azetidin-1-yl)-1,3,4-oxadiazol-2-yl)pyrimidin-2-amine]
17.6%	CS(=O)(=O)OC1CN(c2nnc(-c3cnc(NC4Cc5cc(F)c(F)cc5C4)nc3)o2)C1 [Example 55, 1-(5-(2-((5,6-difluoro-2,3-dihydro-1H-inden-2-yl)amino)pyrimidin-5-yl)-1,3,4-oxadiazol-2-yl)azetidin-3-yl methanesulfonate]
85.2%	Fc1cc2c(cc1F)CC(Nc1ncc(-c3nnc(N4CC(F)(c5c[nH]nn5)C4)o3)cn1)C2 [Example 56, N-(5,6-difluoro-2,3-dihydro-1H-inden-2-yl)-5-(5-(3-fluoro-3-(1H-1,2,3-triazol-4-yl)azetidin-1-yl)-1,3,4-oxadiazol-2-yl)pyrimidin-2-amine]
1%	Fc1cc2c(cc1F)CC(Nc1ncc(-c3nnc(N4CC(c5nnc(C(F)(F)F)o5)C4)o3)cn1)C2 [Example 58, N-(5,6-difluoro-2,3-dihydro-1H-inden-2-yl)-5-(5-(3-(5-(trifluoromethyl)-1,3,4-oxadiazol-2-yl)azetidin-1-yl)-1,3,4-oxadiazol-2-yl)pyrimidin-2-amine]
49.5%	Clc1cc(Cl)cc(CCNc2ncc(-c3nnc(N4CC(c5c[nH]nn5)C4)o3)cn2)c1 [Example 59, 5-(5-(3-(1H-1,2,3-triazol-4-yl)azetidin-1-yl)-1,3,4-oxadiazol-2-yl)-N-(3,5-dichlorophenethyl)pyrimidin-2-amine]
1%	Fc1cc2c(cc1F)CC(Nc1cnc(-c3nnc(N4CC(c5c[nH]nn5)C4)o3)cn1)C2 [Example 60, 5-(5-(3-(1H-1,2,3-triazol-4-yl)azetidin-1-yl)-1,3,4-oxadiazol-2-yl)-N-(5,6-difluoro-2,3-dihydro-1H-inden-2-yl)pyrazin-2-amine]
1%	CC(C)(C)C(=O)OCn1cc(C2CN(c3nnc(-c4cnc(NC5Cc6ccc(Br)cc6C5)nc4)o3)C2)nn1 (stereo not shown) [Example 62, (4-(1-(5-(2-((5-bromo-2,3-dihydro-1H-inden-2-yl)amino)pyrimidin-5-yl)-1,3,4-oxadiazol-2-yl)azetidin-3-yl)-1H-1,2,3-triazol-1-yl)methyl pivalate]
100%	Brc1ccc2c(c1)CC(Nc1ncc(-c3nnc(N4CC(c5c[nH]nn5)C4)o3)cn1)C2 (stereo not shown) [Example 64, 5-(5-(3-(1H-1,2,3-triazol-4-yl)azetidin-1-yl)-1,3,4-oxadiazol-2-yl)-N-(5-bromo-2,3-dihydro-1H-inden-2-yl)pyrimidin-2-amine]
100%	Fc1ccc2c(c1)CC(Nc1ncc(-c3nnc(N4CC(c5c[nH]nn5)C4)o3)cn1)C2 (stereo not shown) [Example 65, 5-(5-(3-(1H-1,2,3-triazol-4-yl)azetidin-1-yl)-1,3,4-oxadiazol-2-yl)-N-(5-fluoro-2,3-dihydro-1H-inden-2-yl)pyrimidin-2-amine]
35.8%	O=c1[nH]nc(C2CN(c3nnc(-c4cnc(NC5Cc6cc(F)c(F)cc6C5)nc4)o3)C2)o1 [Example 66, 5-(1-(5-(2-((5,6-difluoro-2,3-dihydro-1H-inden-2-yl)amino)pyrimidin-5-yl)-1,3,4-oxadiazol-2-yl)azetidin-3-yl)-1,3,4-oxadiazol-2(3H)-one]
